Experimental data: PubChem BioAssay (NCI)
Values joined by “and” are separate entries in the source; they are usually repeats but may differ in a detail not shown here. Equal entries are not always repeated.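 Following 48 hours of exposure in 96-well plates, responses at five concentrations were used to interpolate endpoints linearly. Abbreviation: GI50, concentration required for 50% inhibition of growth. At the TGI there is no net growth.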

Legend:
Assay in all cases: inhibition of tumour cell growth, NCI panel, 48 h
HOP-62 NSCLC = system: HOP-62 NSCLC
OVCAR-3 ovarian = system: OVCAR-3 ovarian
SNB-75 CNS = system: SNB-75 CNS
SN12C renal = system: SN12C renal
SW-620 colon = system: SW-620 colon
HOP-92 NSCLC = system: HOP-92 NSCLC
IGROV1 ovarian = system: IGROV1 ovarian
SNB-19 CNS = system: SNB-19 CNS
SF-539 CNS = system: SF-539 CNS
DU-145 prostate = system: DU-145 prostate

SMILES	TGI (HOP-62 NSCLC)	TGI (OVCAR-3 ovarian)	TGI (SNB-75 CNS)	TGI (SN12C renal)	TGI (SW-620 colon)	TGI (HOP-92 NSCLC)	TGI (IGROV1 ovarian)	TGI (SNB-19 CNS)	TGI (SF-539 CNS)	TGI (DU-145 prostate)	GI50 (OVCAR-3 ovarian)	GI50 (HOP-62 NSCLC)	GI50 (SNB-75 CNS)	GI50 (SN12C renal)	GI50 (SW-620 colon)	GI50 (HOP-92 NSCLC)	GI50 (IGROV1 ovarian)	GI50 (SNB-19 CNS)
COC(=O)C(=O)C(C(=O)Nc1cccc(C)c1C)C1Sc2ccccc2NC1=O (stereo not drawn)	> 25 µM	> 25 µM	> 25 µM	> 25 µM	> 25 µM	> 25 µM	> 25 µM	> 25 µM	> 25 µM									
COc1ccc2oc(=N)c(C(=O)Nc3cccc4ccccc34)cc2c1	26.9 µM	30.8 µM	32.9 µM	> 100 µM	> 100 µM			48 µM	> 100 µM	> 100 µM								
C=CCNC(=S)Nc1sc2c(c1C(=O)OCC)CC(C)CC2 (stereo not drawn)	65.1 µM	50.1 µM	64.7 µM	82.8 µM	> 100 µM	> 100 µM	> 100 µM	62.5 µM		> 100 µM								
C1=C\SS/C=C\SS/C=C\SS/C=C\SS/1	> 100 µM			> 100 µM	> 100 µM	> 100 µM	> 100 µM	> 100 µM		> 100 µM								
CCc1nn(CN2CCN(C)CC2)c(=S)n1/N=C\c1ccc(-c2ccc([N+](=O)[O-])cc2)o1	> 100 µM	> 100 µM		> 100 µM		> 100 µM	> 100 µM	> 100 µM		> 100 µM								
Cc1ccc(S(=O)(=O)N/N=C/c2oc(-c3cccc([N+](=O)[O-])c3)c(-c3cccc([N+](=O)[O-])c3)c2[N+](=O)[O-])cc1		> 100 µM	> 100 µM	> 100 µM	> 100 µM	> 100 µM	91.2 µM	> 100 µM	> 100 µM	> 100 µM								
O=C1N[C@H]2c3c(Cl)sc(Cl)c3/C(=N/O)[C@H]2O1	> 100 µM	> 100 µM	> 100 µM	> 100 µM	> 100 µM		> 100 µM	> 100 µM	> 100 µM	> 100 µM								
COC(=O)c1cn(CCCC(=O)O)nn1	> 100 µM		> 100 µM	> 100 µM	> 100 µM	> 100 µM	> 100 µM	> 100 µM	> 100 µM	> 100 µM								
CN1C/C(=C\c2cccs2)C2=NC(=S)NC(c3cccs3)C2C1 (stereo not drawn)	> 100 µM	> 100 µM		> 100 µM	> 100 µM	> 100 µM	> 100 µM	> 100 µM		> 100 µM								
O=C(O)c1ccccc1.[Ag]	46.3 µM	28.5 µM	11.3 µM	51 µM		41.3 µM	30.6 µM	> 100 µM	45.4 µM	32.1 µM								
COc1ccc(-c2nc(N)c(C#N)c3c2CCS(=O)(=O)c2ccc(C)cc2-3)cc1OC	> 100 µM	> 100 µM	69.7 µM	> 100 µM	> 100 µM	> 100 µM	> 100 µM	> 100 µM		> 100 µM								
COC(=O)[C@H](Cc1ccccc1)NC(=O)c1ccc(CNC(=O)/C=C/c2ccc(-c3ccccc3)cc2)cc1	45.4 µM	> 100 µM	48.3 µM	> 100 µM	> 100 µM	> 100 µM	> 100 µM	39.1 µM		> 100 µM								
Cc1nc2c(=S)[nH]ncc2[nH]1	> 100 µM	> 100 µM	> 100 µM	> 100 µM	> 100 µM	> 100 µM	> 100 µM	> 100 µM	> 100 µM									
O=C(Nc1cccc2ccccc12)Oc1ccccc1C1CCCCC1	33.1 µM	39.5 µM	29.8 µM	30.1 µM	40 µM	30.7 µM	51.2 µM	> 100 µM	32 µM									
Nc1nc(N)c2ncn(CC3CCC(CO)C3)c2n1 (stereo not drawn)	> 100 µM	> 100 µM	> 100 µM	> 100 µM	> 100 µM	> 100 µM		> 100 µM	> 100 µM	> 100 µM								
O=C(CP(c1ccccc1)c1ccccc1)c1cccc(C(=O)CP(c2ccccc2)c2ccccc2)c1	> 100 µM		> 100 µM	> 100 µM	> 100 µM		> 100 µM	> 100 µM	> 100 µM	> 100 µM								
CCC1(O)CC(OC2CC(N(C)C)C(OC3CC4OC5CC(=O)C(C)OC5OC4C(C)O3)C(C)O2)c2c(cc3c(c2O)C(=O)c2c(O)ccc(O)c2C3=O)C1C(=O)OC (stereo not drawn)		0.0789 µM and 0.0232 µM and < 0.0174 µM				0.0828 µM and 0.0644 µM		0.117 µM and 0.245 µM and 1.17 µM			0.00656 µM and 0.00711 µM							
FC(F)(F)c1ccc(-c2nc(-c3nc4cc(Cl)c(Cl)cc4[nH]3)c3ccccn23)cc1	16.3 µM	> 100 µM	4.3 µM	> 100 µM	> 100 µM	28.7 µM	> 100 µM	> 100 µM			3.74 µM	3.04 µM	1.45 µM	> 100 µM	> 100 µM	2.97 µM	16.1 µM	6.88 µM
CC1(C)O[C@H]2Cn3c(c(C#N)c4ccccc43)[C@H]2O1	> 100 µM	> 100 µM	> 100 µM	> 100 µM		> 100 µM	> 100 µM	> 100 µM	> 100 µM	> 100 µM								
CCC(C)[C@@H](NCc1ccccc1)[C@H](OCc1ccccc1)[C@@H]1COC(C)(C)O1 (stereo partly drawn)	> 100 µM	> 100 µM	> 100 µM	49 µM	48.5 µM	31.4 µM	37.4 µM	57.3 µM		68 µM								
CCOC(=O)CCCn1nnc(C(=O)OCC)c1C(=O)OCC	> 100 µM		> 100 µM	> 100 µM	> 100 µM	> 100 µM	> 100 µM	> 100 µM	> 100 µM	> 100 µM								
COC(=O)N1CC2(CO)C3CC=C(C(=O)Nc4ccccc4Br)C2C1C3Br (stereo not drawn)	> 50 µM	> 50 µM	> 50 µM		> 50 µM	> 50 µM	> 50 µM	> 50 µM	> 50 µM	> 50 µM								
